# Results as given in the supplement of paper PMC10784567.
# ± gives the standard deviation of the averaged measurements.
# Compound: C=C1C[C@H]2C=Nc3cc(OCCCCCOc4cc5c(cc4OC)C(=O)N4CC(=C)C[C@H]4C=N5)c(OC)cc3C(=O)N2C1 [SG2057]
# Experiment: absolute IC50 (cell viability, CellTiter-Glo); higher = less potent
# Conditions: treatment time: 3 days
# Method: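 Large cancer cell line panel screens in 384-well plates. Cells were treated for 3 days with a 9-point dose titration of the free PBD dimer SG2057; viability was read with CellTiter-Glo. Absolute IC50 came from a four-parameter Hill fit normalised to the median of vehicle (DMSO) wells. Several independent screens (projects) per cell line are averaged; values in µM, lowest-dose floor about 1.524e-5 µM.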
row,Test System,absolute IC50 [nM]
1,4T1 Luciferase,3.01
2,51BLim 10,0.371
3,59M,1.47
4,66c14,0.725
5,105KC (DODx),3.56
6,143B,0.191
7,501A,0.378 ± 0.25
8,537 MEL,1.23 ± 0.94
9,769-P,4.38 ± 4.6
10,786-O,1.24 ± 1.8
11,1321N1,0.0321
12,1624-16997 (Tumor A),0.926
13,1624-16997 (Tumor B),0.909
14,1624-16997 (Tumor C),1.55
15,1624-17082 (Tumor A),0.887
16,1624-17091 (Tumor A),0.849
17,1624-17091 (Tumor B),2.12
18,1624-17095 (Tumor A),1.31
19,1624-17095 (Tumor B),5.51
20,1624-17095 (Tumor C),0.777
21,1624-17147 (Tumor A),1.27
22,1624-17147 (Tumor B),1.55
23,4498-1636 Mel-nBR1,0.565
24,4498-14745 Mel-BR3,0.39
25,4498-16820 Mel-BR1,0.55

row,Test System,absolute IC50 [nM]
1,4498-16820 Mel-BR1 X1,0.911
2,8305C,0.706
3,8505C,0.595
4,23132/87,1 ± 1.2
5,A20,< 0.0152
6,A172,0.554
7,A549,0.926 ± 1.4
8,A-427,0.831
9,A-498,2.47
10,A-673,0.0661
11,AB22,4.95
12,ABC-1,0.365 ± 0.24
13,AE17,0.259
14,AM-38,4.53
15,AMO-1,0.409 ± 0.15
16,AN3 CA,1.45
17,ASH-3,0.925
18,ATRFLOX,0.211 ± 0.41
19,AU565,0.835 ± 0.35
20,AsPC-1,5.12 ± 5.9
21,B16-F1,0.595
22,B16-F10,1.01
23,B16-F10 Luciferase,0.894
24,B-CPAP,0.345
25,BA/F3,0.114

row,Test System,absolute IC50 [nM]
1,BE(2)-M17,0.494
2,BEN,43.1
3,BFTC-909,0.681
4,BHY,0.183
5,BICR 10,0.421
6,BICR 22,0.854
7,BOKU,0.258
8,BT-20,1.72 ± 0.74
9,BT-474,4.09 ± 3.7
10,BT-B,0.864
11,C2BBe1,7.31 ± 3.8
12,C32,0.31 ± 0.098
13,C32TG,0.2
14,C170,2.97 ± 1.1
15,C-33 A,0.0527
16,CA46,0.354 ± 0.53
17,CAL 27,0.164
18,CAL-12T,3.57 ± 3.2
19,CAL-85-1,1.67 ± 0.48
20,CAL-120,2.01 ± 2.9
21,CAMA-1,5.02
22,CCF-STTG1,2.87
23,CFPAC-1,0.526 ± 0.55
24,CGTH-W-1,0.189
25,CHL-1,1.39 ± 1.1

row,Test System,absolute IC50 [nM]
1,CHP-212,0.105
2,CI-1,0.104 ± 0.014
3,CL-11,21.7
4,CL-34,1.69 ± 3.5
5,COLO 201,0.782
6,COLO 205,1.52 ± 0.48
7,COLO 206F,2.54 ± 2.5
8,COLO 320,12
9,COLO 320DM,20.2
10,COLO 320HSR,1.9
11,COLO 678,5.65 ± 4.5
12,COLO 679,0.435 ± 0.34
13,COLO 680N,0.602
14,COLO 684,5
15,COLO 685,1.32
16,COLO 704,3.36 ± 2.6
17,COLO 783,3.44
18,COLO 792,3.47
19,COLO 794,0.0985 ± 0.063
20,COLO 818,3.37 ± 4.1
21,COLO 824,0.192
22,COLO 829,0.32 ± 0.18
23,COLO 853,1 ± 0.73
24,COLO 858,1.72 ± 1.4
25,COR-L26,0.211 ± 0.31

row,Test System,absolute IC50 [nM]
1,COR-L47,4.01
2,COR-L88,5.79
3,COR-L279,0.082
4,COV318,5.85 ± 6.6
5,COV362.4,4.61 ± 1.7
6,COV413A,2.34
7,COV413B,2.73 ± 3.9
8,COV434,0.188 ± 0.19
9,COV504,3.76 ± 4
10,CT26.WT,5.3
11,CX-1,1.82 ± 2
12,Ca Ski,0.254
13,CaR-1,0.535 ± 0.21
14,Caco-2,5.17 ± 0.99
15,Caki-1,0.052
16,Caki-2,10.2 ± 19
17,Calu-3,1.55 ± 0.058
18,Calu-6,6.78
19,Capan-2,4.33 ± 0.82
20,ChaGo-K-1,3.31 ± 1.5
21,Clone M-3 Cloudman S91 melanoma,0.202
22,CoCM-1,13.5
23,DAN-G,0.694 ± 0.32
24,DEOC-1,18.9
25,DLD-1,1.01 ± 0.81

row,Test System,absolute IC50 [nM]
1,DMS 273,1.38
2,DOV 13,0.241 ± 0.31
3,Daudi,0.155 ± 0.24
4,Detroit 562,1.79 ± 2.6
5,EB-3,0.637 ± 0.85
6,EBC-1,0.876
7,ECC-1,1.04
8,EFE-184,5.81 ± 7.5
9,EFM-192A,1.2
10,EL4,0.0929
11,EMT6 Luciferase,0.606
12,EPLC-272H,0.205
13,FA9JTOTERT,0.435
14,FOX-NY,0.0773
15,FTC-133,0.122
16,FTC-238,0.101
17,FU97,1.57
18,FaDu,0.35
19,G28T,0.984 ± 1
20,G59,0.803 ± 0.82
21,G61,0.189 ± 0.015
22,G96,0.588
23,G111,0.208 ± 0.22
24,G121,0.799 ± 0.38
25,G124,2.54

row,Test System,absolute IC50 [nM]
1,G140,1.28 ± 1.7
2,G141,0.924 ± 0.65
3,G142,0.556 ± 1
4,G-401,0.305 ± 0.16
5,G-402,0.349 ± 0.14
6,GB-1,1.12
7,GCH-nu-YS,0.242
8,GI-1,0.311
9,GOS-3,0.597
10,GOTOP3,0.217
11,GP5d,1.93 ± 1.5
12,GR-M,0.107 ± 0.064
13,H322T,2.68 ± 2.1
14,HCA-1,4.69
15,HCA-7,2.01 ± 1.7
16,HCC44,0.762 ± 0.59
17,HCC60 (NCI-H23),0.268
18,HCC70 (DODx),4.647 ± 0.017
19,HCC78,0.114 ± 0.099
20,HCC89,4.66 ± 3.1
21,HCC193,3.17 ± 2.2
22,HCC364,2.86 ± 4.4
23,HCC366,4.65
24,HCC515,0.134 ± 0.17
25,HCC597,6.01

row,Test System,absolute IC50 [nM]
1,HCC827,2.16 ± 4.3
2,HCC850,0.178
3,HCC880,2.86
4,HCC1010,0.134 ± 0.12
5,HCC1054,0.292
6,HCC1159,0.67
7,HCC1171,1.01 ± 0.16
8,HCC1187,0.601 ± 0.69
9,HCC1263,5.65 ± 3.7
10,HCC1319,12.8
11,HCC1347,2.49
12,HCC1428,6.01 ± 0.31
13,HCC1482,0.173
14,HCC1493,0.412 ± 0.72
15,HCC1534,3.18 ± 2.4
16,HCC1576,0.476
17,HCC1623,5.3
18,HCC1937,4.67 ± 4.4
19,HCC1954,1.35 ± 3.1
20,HCC2218,1.16
21,HCC2279,3.55 ± 6.2
22,HCC2302,8.98
23,HCC2450,5.43
24,HCC2688,0.282
25,HCC2885,0.801

row,Test System,absolute IC50 [nM]
1,HCC2935,5.29 ± 3.4
2,HCC3335,1.59
3,HCC3418,0.0218
4,HCC4011,4.15 ± 4.6
5,HCC4017,0.193
6,HCC4019,4.51 ± 2.9
7,HCC-15,2.35 ± 3.1
8,HCS-2,0.957
9,HCSC-1,3.07
10,HCT-8,1.43
11,HDQ-P1,4.08 ± 4.4
12,HEC-1-A,3.86
13,HEC-1-B,6.12
14,HEC-6,0.536
15,HEC-50B,0.713
16,HEC-59,0.472
17,HEC-88nu,3.07
18,HEC-108,1.42
19,HEC-116,0.464
20,HEC-151,0.352
21,HEC-251,1.28
22,HEC-265,0.555
23,HEL,0.067 ± 0.0071
24,HEp-2,0.322
25,HGC-27,0.406 ± 0.086

row,Test System,absolute IC50 [nM]
1,HL-60,5.24
2,HLE,2.7
3,HLF,0.503 ± 0.72
4,HM7,0.488 ± 0.27
5,HMVII,0.434 ± 0.73
6,HMY-1,1.17 ± 0.94
7,HN,0.225
8,HNT-34,0.076 ± 0.067
9,HOP-18,3.89
10,HPAC,13.2 ± 25
11,HPAF-II,4.04 ± 0.15
12,HSC-5,0.621
13,HT-3,0.212
14,HT-29,2.89 ± 2
15,HT-55,3.75 ± 2.6
16,HT-115,1.59 ± 0.21
17,HT-1080,0.569 ± 0.14
18,HUH-7,1.82
19,HUP-T3,0.645 ± 0.72
20,HUP-T4,1.09 ± 1.1
21,HeLa,1.8
